# Molecular target: T1, PD-1/PD-L1 (Homo sapiens, UniProt Q9NZQ7)
# T1 construct: Recombinant human PD-L1 protein (19-238) with a His-tag at the C-terminus; purchased AcroBiosystems PD1-H5229 (PD-L1); PD1-H5257 (PD-1)
# Assay: PD-1/PD-L1 Homogeneous Time-Resolved Fluorescence (HTRF) binding assay
# Conditions: recombinant human PD-L1 (19-238)-His 10 nM, human PD-1 (25-167)-Fc 3 nM, 25° C., PBS pH 7.4
# Procedure: Example A. PD-1/PD-L1 Homogeneous Time-Resolved Fluorescence (HTRF) Binding Assay
# The assays were conducted in a standard black 384-well polystyrene plate with a final volume of 20 μL. Inhibitors were first serially diluted in DMSO and then added to the plate wells before the addition of other reaction components. The final concentration of DMSO in the assay was 1%. The assays were carried out at 25° C. in the PBS buffer (pH 7.4) with 0.05% Tween-20 and 0.1% BSA. Recombinant human PD-L1 protein (19-238) with a His-tag at the C-terminus was purchased from AcroBiosystems (PD1-H5229). Recombinant human PD-1 protein (25-167) with Fc tag at the C-terminus was also purchased from AcroBiosystems (PD1-H5257). PD-L1 and PD-1 proteins were diluted in the assay buffer and 10 μL was added to the plate well. Plates were centrifuged and proteins were preincubated with inhibitors for 40 minutes. The incubation was followed by the addition of 10 μL of HTRF detection buffer supplemented with Europium cryptate-labeled anti-human IgG (PerkinElmer-AD0212) specific for Fc and anti-His antibody conjugated to SureLight®-Allophycocyanin (APC, PerkinElmer-AD0059H). After centrifugation, the plate was incubated at 25° C. for 60 min. before reading on a PHERAstar FS plate reader (665 nm/620 nm ratio). Final concentrations in the assay were—3 nM PD1, 10 nM PD-L1, 1 nM europium anti-human IgG and 20 nM anti-His-Allophycocyanin. IC50 determination was performed by fitting the curve of percent control activity versus the log of the inhibitor concentration using the GraphPad Prism 5.0 software.
# T1 sequence (Q9NZQ7 19-238): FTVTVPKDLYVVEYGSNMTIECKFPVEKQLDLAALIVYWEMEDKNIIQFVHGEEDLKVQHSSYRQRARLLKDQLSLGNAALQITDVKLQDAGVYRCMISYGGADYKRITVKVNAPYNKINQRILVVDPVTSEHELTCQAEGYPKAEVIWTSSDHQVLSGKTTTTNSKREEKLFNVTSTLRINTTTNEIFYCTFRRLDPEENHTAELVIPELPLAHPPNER
row,IC50,SMILES
1,10 to 100 nM,"CCN(C)CC(=O)N1Cc2nc(-c3cccc(-c4cccc(N5CCn6cncc6C5)c4C)c3C)sc2C1 [Example 38, 1-(2-(3′-(5,6-dihydroimidazo[1,5-a]pyrazin-7(8H)-yl)-2,2′-dimethylbiphenyl-3-yl)-4H-pyrrolo[3,4-d]thiazol-5(6H)-yl)-2-(ethyl(methyl)amino)ethanone]"
2,1000 to 2000 nM,"Cc1c(NCC2CCCNC2)cccc1-c1ccccc1 (stereo not shown) [Example 28, 2-methyl-N-(piperidin-3-ylmethyl)biphenyl-3-amine]"
3,100 to 1000 nM,"Cc1c(-c2ccccc2)cccc1N1CCC2(CCCCN2)CC1 [Example 31, 9-(2-methylbiphenyl-3-yl)-1,9-diazaspiro[5.5]undecane]"
4,≤ 10 nM,"CCN(C)CC(=O)N1Cc2nc(-c3cccc(-c4cccc(C#CC5CCNCC5)c4C)c3C)sc2C1 [Example 36, 1-(2-(2,2′-dimethyl-3′-(piperidin-4-ylethynyl)biphenyl-3-yl)-4H-pyrrolo[3,4-d]thiazol-5(6H)-yl)-2-(ethyl(methyl)amino)ethanone]"

# Continued, compound first:
row,SMILES,IC50
1,"Cc1c(-c2ccccc2)cccc1N1CCC[C@@H](N)C1 [Example 26, (R)-1-(2-methylbiphenyl-3-yl)piperidin-3-amine]",100 to 1000 nM
2,"COc1cccc(-c2cccc(Nc3nccc(CNCCO)c3F)c2Cl)c1F [Example 3, 2-((2-(2-chloro-2′-fluoro-3′-methoxybiphenyl-3-ylamino)-3-fluoropyridin-4-yl)methylamino)ethanol]",≤ 10 nM
3,"Cc1c(-c2ccccc2)cccc1-c1cnc2c(c1)CNCC2 [Example 20, 3-(2-methylbiphenyl-3-yl)-5,6,7,8-tetrahydro-1,6-naphthyridine]",100 to 1000 nM
4,"Cc1c(-c2ccccc2)cccc1-c1cnc2c(c1)CNC2 [Example 17, 3-(2-methylbiphenyl-3-yl)-6,7-dihydro-5H-pyrrolo[3,4-b]pyridine]",100 to 1000 nM
5,"Cc1c(-c2ccccc2)cccc1N1CCC(CN)CC1 [Example 27, (1-(2-methylbiphenyl-3-yl)piperidin-4-yl)methanamine]",100 to 1000 nM
6,"Cc1c(Nc2ccc3c(c2)CCNC3)cccc1-c1ccccc1 [Example 15, N-(2-methylbiphenyl-3-yl)-1,2,3,4-tetrahydroisoquinolin-6-amine]",100 to 1000 nM

# Source: patent US20230226062A1, “HETEROCYCLIC COMPOUNDS AS IMMUNOMODULATORS” (Incyte Corporation, priority 2016, published 2023)
